Measured values as given in patent US10448639B2, “Fungicidal pyrazoles” (FMC CORPORATION, priority 2009, dated 2019).

Legend:
[1] = test system: Erysiphe graminis f sp. tritici; test: Test J: wheat powdery mildew, preventive spray on wheat seedlings, visual disease rating; conditions: for Test J rating (% disease control) / Test J disease control rating: wheat powdery mildew, 100 = 100% disease control; for Test J disease control rating: sprayed the day before inoculation, 0 = no disease control relative to controls
Septoria tritici = test: Test G: wheat leaf blotch, preventive spray on wheat seedlings, visual disease rating; conditions: for Test G rating (% disease control) / Test G disease control rating: wheat leaf blotch, 100 = 100% disease control; for Test G disease control rating: sprayed the day before inoculation, 0 = no disease control relative to controls
Septoria nodorum = test: Test F: Septoria glume blotch, preventive spray on wheat seedlings, visual disease rating; conditions: for Test F rating (% disease control) / Test F disease control rating: 100 = 100% disease control; for Test F disease control rating: 0 = no disease control relative to controls
[2] = test system: Puccinia recondita f. sp. tritici; test: Test I: wheat leaf rust, preventive spray on wheat seedlings, visual disease rating; conditions: for Test I rating (% disease control) / Test I disease control rating: wheat leaf rust, 100 = 100% disease control; for Test I disease control rating: sprayed the day before inoculation, 0 = no disease control relative to controls
Botrytis cinerea = test: Test B: tomato Botrytis, preventive spray on tomato seedlings, visual disease rating; conditions: for Test B rating (% disease control) / Test B disease control rating: tomato Botrytis, 100 = 100% disease control; for Test B disease control rating: 0 = no disease control relative to controls
[3] = test system: Puccinia recondita f. sp. tritici; test: Test H: wheat leaf rust, curative spray on inoculated wheat seedlings, visual disease rating; conditions: for Test H rating (% disease control) / Test H disease control rating: wheat leaf rust, 100 = 100% disease control; for Test H disease control rating: sprayed after inoculation, 0 = no disease control relative to controls
Alternaria solani = test: Test C: tomato early blight, preventive spray on tomato seedlings, visual disease rating; conditions: for Test C rating (% disease control) / Test C disease control rating: tomato early blight, 100 = 100% disease control; for Test C disease control rating: 0 = no disease control relative to controls
[4] = preventive spray, 0 = no control
[5] = Septoria glume blotch on wheat, preventive spray, 0 = no control
[6] = 0 = no control relative to controls
[7] = Septoria glume blotch, 0 = no control relative to controls
[8] = preventive, 0 = no control relative to controls
[9] = curative, 0 = no control relative to controls

## Cc1nn(C)c(Nc2ccc(F)cc2F)c1-c1c(F)cc(OS(=O)(=O)C(F)(F)F)cc1F [compound 105]
[1]; [4]
  Test J rating (% disease control): 72%
Septoria tritici; [4]
  Test G rating (% disease control): 73%
Septoria nodorum; [5]
  Test F rating (% disease control): 0%
[2]; [4]
  Test I rating (% disease control): 0%
Botrytis cinerea; [4]
  Test B rating (% disease control): 23%
[3]; curative spray, 0 = no control
  Test H rating (% disease control): 9%
Alternaria solani; [4]
  Test C rating (% disease control): 0%

## Cc1nn(C)c(Nc2ccc(C#N)cc2Cl)c1-c1ccc(F)cc1Cl [compound 162]
[1]; [6]
  Test J rating (% disease control): 94%
Septoria tritici; [6]
  Test G rating (% disease control): 99%
Septoria nodorum; [7]
  Test F rating (% disease control): 0%
[2]; [8]
  Test I rating (% disease control): 98%
Botrytis cinerea; [6]
  Test B rating (% disease control): 99%
[3]; [9]
  Test H rating (% disease control): 8%
Alternaria solani; [6]
  Test C rating (% disease control): 0%

## Cc1nn(C)c(Oc2cc(F)c(C#N)cc2F)c1-c1ccc(F)cc1Br [compound 233]
[1]; [6]
  Test J rating (% disease control): 100%
Septoria tritici; [6]
  Test G rating (% disease control): 100%
Septoria nodorum; [7]
  Test F rating (% disease control): 99%
[2]; [8]
  Test I rating (% disease control): 100%
Botrytis cinerea; [6]
  Test B rating (% disease control): 100%
[3]; [9]
  Test H rating (% disease control): 0%
Alternaria solani; [6]
  Test C rating (% disease control): 99%

## Cc1nn(C)c(Nc2c(F)cccc2F)c1-c1ccc(Cl)cc1Cl [compound 353]
[1]
  Test J disease control rating: 99%
Septoria tritici
  Test G disease control rating: 99%
Septoria nodorum; Septoria glume blotch on wheat
  Test F disease control rating: 0%
[2]
  Test I disease control rating: 99%
Botrytis cinerea
  Test B disease control rating: 97%
[3]
  Test H disease control rating: 3%
Alternaria solani
  Test C disease control rating: 17%

## COc1cc(F)c(Nc2c(-c3c(F)cccc3F)c(C)nn2C)c(F)c1 [compound 257]
[1]; [6]
  Test J rating (% disease control): 98%
Septoria tritici; [6]
  Test G rating (% disease control): 100%
Septoria nodorum; [7]
  Test F rating (% disease control): 0%
[2]; [8]
  Test I rating (% disease control): 97%
Botrytis cinerea; [6]
  Test B rating (% disease control): 100%
[3]; [9]
  Test H rating (% disease control): 0%
Alternaria solani; [6]
  Test C rating (% disease control): 99%

## COc1cc(F)c(-c2c(C)nn(C)c2Nc2ccc(C)cc2)c(F)c1 [compound 50]
[1]; [4]
  Test J rating (% disease control): 99%
Septoria tritici; [4]
  Test G rating (% disease control): 100%
Septoria nodorum; [5]
  Test F rating (% disease control): 0%
[2]; [4]
  Test I rating (% disease control): 98%
Botrytis cinerea; [4]
  Test B rating (% disease control): 99%
[3]; curative spray, 0 = no control
  Test H rating (% disease control): 0%
Alternaria solani; [4]
  Test C rating (% disease control): 57%

## Cc1nn(C)c(Nc2ccc(C#N)cc2F)c1-c1c(F)cc(F)cc1F [compound 120]
[1]; [4]
  Test J rating (% disease control): 99%
Septoria tritici; [4]
  Test G rating (% disease control): 100%
Septoria nodorum; [5]
  Test F rating (% disease control): 94%
[2]; [4]
  Test I rating (% disease control): 99%
Botrytis cinerea; [4]
  Test B rating (% disease control): 100%
[3]; curative spray, 0 = no control
  Test H rating (% disease control): 0%
Alternaria solani; [4]
  Test C rating (% disease control): 99%

## Cc1nn(C)c(Nc2c(F)cc(C#N)cc2F)c1-c1c(F)cccc1F [compound 301]
[1]; [6]
  Test J rating (% disease control): 99%
Septoria tritici; [6]
  Test G rating (% disease control): 100%
Septoria nodorum; [7]
  Test F rating (% disease control): 87%
[2]; [8]
  Test I rating (% disease control): 98%
Botrytis cinerea; [6]
  Test B rating (% disease control): 99%
[3]; [9]
  Test H rating (% disease control): 0%
Alternaria solani; [6]
  Test C rating (% disease control): 87%

## Cc1nn(C)c(Nc2ccc(F)cc2F)c1-c1ccccc1Cl [compound 315]
[1]
  Test J disease control rating: 100%
Septoria tritici
  Test G disease control rating: 100%
Septoria nodorum; Septoria glume blotch on wheat
  Test F disease control rating: 0%
[2]
  Test I disease control rating: 96%
Botrytis cinerea
  Test B disease control rating: 99%
[3]
  Test H disease control rating: 0%
Alternaria solani
  Test C disease control rating: 99%

## Cc1nn(C)c(Oc2c(F)cc(C#N)cc2F)c1-c1ccc(F)cc1Cl [Compound 45, 4-[[4-(2-chloro-4-fluorophenyl)-1,3-dimethyl-1H-pyrazol-5-yl]oxy]-3,5-difluorobenzonitrile]
[1]; Blumeria graminis, in Triticum aestivum, 192 h, read-out: Test J rating (% disease control)
  pest or weed control at 200 µg/mL: 100%
Septoria tritici; Zymoseptoria tritici, in Triticum aestivum, 504 h, read-out: Test G rating (% disease control)
  pest or weed control at 200 µg/mL: 100%
Septoria nodorum; Parastagonospora nodorum, in Triticum aestivum, 192 h, read-out: Test F rating (% disease control)
  pest or weed control at 200 µg/mL: 100%
[2]; 192 h, read-out: Test I rating (% disease control)
  pest or weed control at 200 µg/mL: 100%
Botrytis cinerea; Botrytis cinerea, in Solanum lycopersicum, 120 h, read-out: Test B rating (% disease control)
  pest or weed control at 200 µg/mL: 100%
[3]; 144 h, read-out: Test H rating (% disease control)
  pest or weed control at 200 µg/mL: 7%
Alternaria solani; Alternaria solani, in Solanum lycopersicum, 168 h, read-out: Test C rating (% disease control)
  pest or weed control at 200 µg/mL: 100%

## COc1cc(F)c(-c2c(C)nn(C)c2Nc2ccc(F)c(F)c2)c(F)c1 [compound 48]
[1]; [4]
  Test J rating (% disease control): 98%
Septoria tritici; [4]
  Test G rating (% disease control): 99%
Septoria nodorum; [5]
  Test F rating (% disease control): 0%
[2]; [4]
  Test I rating (% disease control): 98%
Botrytis cinerea; [4]
  Test B rating (% disease control): 100%
[3]; curative spray, 0 = no control
  Test H rating (% disease control): 0%
Alternaria solani; [4]
  Test C rating (% disease control): 78%
